Molecules are shown by their SMILES. Structures can show the parent of a compound that is named as a salt.

The first assay has as its system mice. The experiment in a line: Mouse hot plate paradigm (analgesic effect, latency until tenth jump). The format is in vivo. The following applies: ip, 0.5 h, minimally effective dose among doses tested, intraperitoneal, dosed 30 minutes prior to testing, hot plate 55 °C, cut-off 180 seconds, increase in tenth jump latency relative to control, read-out: (MED). As to the method: An in vivo protocol was utilized to determine the effectiveness of nicotinic acetylcholine receptor ligands as analgesic agents in the mouse hot plate paradigm.
Separate groups of mice, (n=8/group) were utilized for each dose group. All drugs were administered by the intraperitoneal route of administration. Test drugs were dissolved in water to make a 6.2 mM stock solution. Animals were dosed with this solution (10 mL/kg body weight) for a 62 micromol/kg dose. Lower doses were administered similarly, following serial dilution of the stock solution in half-log increments. Animals were dosed 30 minutes prior to testing in the hot plate. The hotplate utilized was an automated analgesia monitor (Model #AHP16AN, Omnitech Electronics, Inc. of Columbus, Ohio). The temperature of the hot plate was maintained at 55 °C and a cut-off time of 180 seconds was utilized. Latency until the tenth jump was recorded as the dependent measure. An increase in the tenth jump latency relative to the control was considered an effect.
As to `Oc1cncc(N2C[C@@H]3C[C@H]2CN3)c1` [Example 22, (1S,4S)-2[5-hydroxy-3-pyridinyl]-2,5-diazabicyclo[2.2.1]heptane 4-methylbenzenesulfonate], the minimal effective dose was found to be 19 µmol/kg. As to `Clc1ccc(N2CC3CNCC(C3)C2)cn1` [Example 58, 3-(6-Chloro-3-pyridinyl)-3,7-diazabicyclo[3.3.1]nonane 4-methylbenzenesulfonate], the minimal effective dose was 0.62 µmol/kg.

With `CN1C2CCC1CN(c1cccnc1)CC2` (stereo not shown) [Example 37, 9-methyl-3-(3-pyridinyl)-3,9-diazabicyclo[4.2.1]nonane 4-methylbenzenesulfonate], the minimal effective dose was 6.2 µmol/kg. Consider `Cc1ccc(N2C[C@@H]3C[C@H]2CN3)cn1` [Example 23, (1S,4S)-2-(6-methyl-3-pyridinyl)-2,5-diazabicyclo[2.2.1]heptane 4-methylbenzenesulfonate], for which the minimal effective dose was 62 µmol/kg. As for `Clc1ccc(N2C[C@H]3C[C@@H]2CN3)nn1` [Example 16, (1R,4R)-2-(6-chloro-3-pyridazinyl)-2,5-diazabicyclo[2.2.1]heptane bis(4-methylbenzenesulfonate)], the minimal effective dose was 6.2 µmol/kg. `Cc1cc(N2C[C@H]3C[C@@H]2CN3)cnc1Cl` [Example 47, (1R,4R)-2-(6-chloro-5-methyl-3-pyridinyl)-2,5-diazabicyclo[2.2.1]heptane 4-methylbenzenesulfonate]: the minimal effective dose worked out at 6.2 µmol/kg.

In the next assay the target is T1, neuronal nicotinic acetylcholine receptors (Rattus norvegicus, UniProt P09483+P12390).
T1 construct: crude synaptic membrane preparations from whole rat brain; from tissue; host or cells: whole rat brain, crude synaptic membranes
T1 sequence (P09483 31-630): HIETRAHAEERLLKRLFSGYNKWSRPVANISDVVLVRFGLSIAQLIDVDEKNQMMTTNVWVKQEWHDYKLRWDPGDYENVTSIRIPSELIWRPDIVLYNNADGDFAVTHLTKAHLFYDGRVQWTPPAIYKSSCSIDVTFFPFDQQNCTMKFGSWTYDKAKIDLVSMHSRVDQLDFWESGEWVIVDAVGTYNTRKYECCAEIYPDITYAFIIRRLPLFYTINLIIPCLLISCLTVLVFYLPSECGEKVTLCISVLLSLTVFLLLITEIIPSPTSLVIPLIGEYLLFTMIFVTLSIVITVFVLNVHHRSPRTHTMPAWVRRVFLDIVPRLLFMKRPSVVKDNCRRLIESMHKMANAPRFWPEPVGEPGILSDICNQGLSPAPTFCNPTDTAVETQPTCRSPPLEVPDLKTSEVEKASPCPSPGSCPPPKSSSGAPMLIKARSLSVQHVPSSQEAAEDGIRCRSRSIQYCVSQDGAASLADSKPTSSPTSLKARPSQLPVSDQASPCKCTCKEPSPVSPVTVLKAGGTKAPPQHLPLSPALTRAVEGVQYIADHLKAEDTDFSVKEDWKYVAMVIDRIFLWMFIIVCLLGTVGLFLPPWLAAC
T1 sequence (P12390 25-500): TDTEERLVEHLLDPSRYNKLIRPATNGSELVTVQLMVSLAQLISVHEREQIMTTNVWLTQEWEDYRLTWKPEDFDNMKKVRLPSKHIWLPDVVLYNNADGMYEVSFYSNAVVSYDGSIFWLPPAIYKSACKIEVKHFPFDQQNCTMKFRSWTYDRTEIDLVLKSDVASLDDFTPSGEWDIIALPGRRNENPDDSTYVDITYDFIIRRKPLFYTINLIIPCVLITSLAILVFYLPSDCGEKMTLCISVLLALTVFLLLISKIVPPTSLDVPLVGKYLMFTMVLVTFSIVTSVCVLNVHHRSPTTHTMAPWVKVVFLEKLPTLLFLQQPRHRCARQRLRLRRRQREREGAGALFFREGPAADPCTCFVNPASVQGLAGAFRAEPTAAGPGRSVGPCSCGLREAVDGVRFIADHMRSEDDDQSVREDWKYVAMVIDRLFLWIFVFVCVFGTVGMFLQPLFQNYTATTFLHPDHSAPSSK
The assay can be described thus: [3H]-cytisine binding to neuronal nicotinic acetylcholine receptors, crude synaptic membranes from whole rat brain.
Conditions: not given
On the procedure:
The In Vitro protocols for determination of nicotinic acetylcholine channel receptor binding potencies of ligands were determined as follows.
Washed membranes were stored at-80 °C prior to use. Frozen aliquots were slowly thawed and resuspended in 20 volumes of buffer (containing: 120 mM NaCl, 5 mM KCI, 2 mM MgCl2, 2 mM CaCl2 and 50 mM Tris-Cl, pH 7.4 @4 °C). After centrifuging at 20,000x g for 15 minutes, the pellets were resuspended in 30 volumes of buffer.
The test compounds were dissolved in water to make 10 mM stock solutions. Each solution was then diluted (1:100) with buffer (as above) and further taken through seven serial log dilutions to produce test solutions from 10^-5 to 10^-11 M.
Samples were incubated for 60 minutes at 4 °C, then rapidly filtered through Whatman GF/B filters presoaked in 0.5% polyethyleneimine using 3 x 4 mL of ice-cold buffer. The filters are counted in 4 mL of Ecolume® (ICN). Nonspecific binding was determined in the presence of 10 µM (-)-nicotine and values were expressed as a percentage of total binding. IC50 values were determined with the RS-1 (BBN) nonlinear least squares curve-fitting program and IC50 values were converted to Ki values using the Cheng and Prusoff correction (Ki=IC50/(1+[ligand]/Kd of ligand).
As a reminder, the Ki is a measure of affinity in units of concentration, obtained from inhibition or displacement. `Nc1ccc(N2CC3CCC(C2)N3)cn1` [Example 11, 3-(6-amino-3-pyridinyl)-3,8-diazabicyclo[3.2.1]octane trihydrochloride] gave a Ki of 37 nM. In turn, `Oc1cncc(N2C[C@@H]3C[C@H]2CN3)c1` [Example 22, (1S,4S)-2[5-hydroxy-3-pyridinyl]-2,5-diazabicyclo[2.2.1]heptane 4-methylbenzenesulfonate] returned a Ki of 4.1 nM. In turn, `Clc1ccc(N2CC3CNCC(C3)C2)cn1` [Example 58, 3-(6-Chloro-3-pyridinyl)-3,7-diazabicyclo[3.3.1]nonane 4-methylbenzenesulfonate] displayed a Ki of 0.02 nM. Take `c1ccc2ncc(N3C[C@@H]4C[C@H]3CN4)cc2c1` [Example 53, (1S,4S)-2-(3-quinolinyl)-2,5-diazabicyclo[2.2.1]heptane acetate]: the affinity, expressed as Ki, was 17 nM.

For `Cc1cc(N2C[C@@H]3C[C@H]2CN3C)nnc1Cl` [Example 6, (1S,4S)-2-(6-chloro-5-methyl-3-pyridazinyl)-5-methyl-2,5-diazabicyclo[2.2.1]heptane bis(4-methylbenzenesulfonate)], the Ki was determined as 22 nM. Still for that read-out and setting: the same measure for `CN1C2CCC1CN(c1cccnc1)CC2` (stereo not shown) [Example 37, 9-methyl-3-(3-pyridinyl)-3,9-diazabicyclo[4.2.1]nonane 4-methylbenzenesulfonate]: 0.55 nM; for `Cc1ccc(N2C[C@@H]3C[C@H]2CN3)cn1` [Example 23, (1S,4S)-2-(6-methyl-3-pyridinyl)-2,5-diazabicyclo[2.2.1]heptane 4-methylbenzenesulfonate]: 1.6 nM. `Cc1cc(N2C[C@@H]3C[C@H]2CN3)sn1` [Example 54, (1S,4S)-2-(3-methyl-5-isothiazolyl)-2.5-diazabicyclo[2.2.1]heptane acetate] displayed a Ki of 5 nM. Same read-out and setting: in the case of `c1cnnc(N2C[C@@H]3C[C@H]2CN3)c1` [Example 29, (1S,4S)-2-(3-pyridazinyl)-2,5-diazabicyclo[2.2.1]heptane 4-methylbenzenesulfonate] it was 37 nM; in that of `Clc1ccc(N2CC3CCC(C2)N3)cn1` [Example 12, 3-(6-chloro-3-pyridinyl)-3,8-diazabicyclo[3.2.1]octane dihydrochloride], 93 nM. In the case of `COc1cncc(N2C[C@@H]3C[C@H]2CN3)c1` [Example 43, (1S,4S)-2-(5-methoxy-3-pyridinyl)-2,5-diazabicyclo[2.2.1]heptane bis(4-methylbenzenesulfonate)], the inhibition constant Ki worked out at 0.57 nM. `Cc1cc(N2C[C@H]3C[C@@H]2CN3)cnc1Cl` [Example 47, (1R,4R)-2-(6-chloro-5-methyl-3-pyridinyl)-2,5-diazabicyclo[2.2.1]heptane 4-methylbenzenesulfonate] registered a Ki of 0.009 nM. Still for that read-out and setting: in the case of `Clc1ccc(N2C[C@@H]3C[C@H]2CN3)nc1` [Example 18, (1S,4S)-2-(5-chloro-2-pyridinyl)-2,5-diazabicyclo[2.2.1]heptane dihydrochloride, reference compound] it was 400 nM; in that of `O=[N+]([O-])c1ccc(N2CC3CCC(C2)N3)cn1` [Example 10, 3-(6-nitro-3-pyrdinyl)-3,8-diazabicyclo[3.2.1]octane dihydrochloride], 37 nM; in that of `c1cnnc(N2CC3CCC(C2)N3)c1` [Example 14, 3-(3-pyridazinyl)-3,8-diazabicyclo[3.2.1]octane dihydrochloride], 11 nM. As for `CN1C[C@@H]2C[C@H]1CN2c1nnc(Cl)c2ccccc12` [Example 8, (1S,4S)-2-(4-chloro-1-phthalazinyl)-5-methyl-2,5-diazabicyclo[2.2.1]heptane bis(4-methylbenzenesulfonate)], the Ki was determined as 2600 nM. Molecule `COc1cc(N2C[C@H]3C[C@@H]2CN3)cnc1Cl` [Example 51, (1R,4R)-2-(6-chloro-5-methoxy-3-pyridinyl)-2,5-diazabicyclo[2.2.1]heptane 4-methylbenzenesulfonate] registered a Ki of 0.1 nM. Molecule `c1cnc2cc(N3C[C@H]4C[C@@H]3CN4)sc2c1` [Example 55, (1R,4R)-2-(thieno[3,2-b]pyridin-2-yl)-2,5-diazabicyclo[2.2.1]heptane acetate] registered a Ki of 0.84 nM. In turn, `c1cncc(N2CC3CNCC2C3)c1` (stereo not shown) [Example 59, 6-(3-pyridinyl)-3,6-diazabicyclo[3.2.1]octane] yielded a Ki of 2.2 nM. For `Oc1cc(N2C[C@@H]3C[C@H]2CN3)cnc1Cl` [Example 45, (1S,4S)-2-(6-chloro-5-hydroxy-3-pyridinyl)-2,5-diazabicyclo[2.2.1]heptane 4-methylbenzenesulfonate], affinity was put at a Ki of 1.6 nM. The molecule `c1cncc(N2C[C@@H]3C[C@H]2CN3)c1` [Example 17, (1S,4S)-2-(3-pyridinyl)-2,5-diazabicyclo[2.2.1]heptane 4-methylbenzenesulfonate] yielded a Ki of 0.063 nM. In turn, `Clc1nnc(N2C[C@@H]3C[C@H]2CN3)c2ccccc12` [Example 7, (1S,4S)-2-(4-chloro-1-phthalazinyl)-2,5-diazabicyclo[2.2.1]heptane bis(4-methylbenzenesulfonate)] showed an inhibitory constant (Ki) of 1900 nM. `Clc1ccc(N2C3CCNCC2CC3)cn1` (stereo not shown) [Example 56, 9-(6-chloro-3-pyridinyl)-3,9-diazabicyclo[4.2.1]nonane fumarate] had an inhibitory constant (Ki) of 0.21 nM. Regarding `c1ncc(N2C[C@@H]3C[C@H]2CN3)cn1` [Example 52, (1S,4S)-2-(5-pyrimidinyl)-2,5-diazabicyclo[2.2.1]heptane 4-methylbenzenesulfonate], the Ki is 1 nM. The molecule `NCc1cncc(N2C[C@@H]3C[C@H]2CN3)c1` [Example 34, (1S,4S)-2-(5-aminomethyl-3-pyridinyl)-2,5-diazabicyclo[2.2.1]heptane trihydrochloride] came in with an inhibition constant Ki of 140 nM.

In the case of `COC(=O)c1cc(N2C[C@@H]3C[C@H]2CN3)nnc1Cl` [Example 9, (1S,4S)-2-(6-chloro-5-methoxycarbonyl-3-pyridazinyl)-2,5-diazabicyclo[2.2.1]heptane bis(4-methylbenzenesulfonate)], the Ki is over 10000 nM. `Nc1ccc(N2C[C@@H]3C[C@H]2CN3)cn1` [Example 3, (1S,4S)-2-(6-amino-3-pyridinyl)-2,5-diazabicyclo[2.2.1]heptane trihydrochloride] had a Ki of 20 nM. `Clc1ccc(N2CC3CC2CCN3)cn1` (stereo not shown) [Example 49, 6-(6-chloro-3-pyridinyl)-2,6-diazabicyclo[3.2.1]octane bis(4-methylbenzenesulfonate)] had a Ki of 2.7 nM. The molecule `c1cncc(N2CC3CCC(C2)N3)c1` [Example 13, 3-(3-pyridinyl)-3,8-diazabicyclo[3.2.1]octane dihydrochloride] came in with a Ki of 0.41 nM. As for `c1ccc(COc2cncc(N3C[C@@H]4C[C@H]3CN4)c2)cc1` [Example 21, (1S,4S)-2-[5-(benzyloxy)-3-pyridinyl]-2,5-diazabicyclo[2.2.1]heptane 4-methylbenzenesulfonate], the Ki amounted to 0.33 nM. In turn, `N#Cc1cncc(N2C[C@@H]3C[C@H]2CN3)c1` [Example 32, (1S,4S)-2-(5-cyano-3-pyridinyl)-2,5-diazabicyclo[2.2.1]heptane 4-methylbenzenesulfonate] displayed a Ki of 1.6 nM.

The same assay, now with this note: [3H]-CYT 1.25 nM, 60 minutes at 4 °C, whole rat brain membranes; Ki from IC50 by Cheng and Prusoff correction; read-out: Average Ki.
On to `c1cncc(N2CC3CCC2CN3)c1` (stereo not shown) [Example 42, 2-(3-pyridinyl)-2.5-diazabicyclo[2.2.2]octane dihydrochloride], for which the Ki was 0.02 nM.

Consider `NC(=O)c1cncc(N2CC3CC2CN3)c1` [Example 50, (1R,4R)-2-(5-aminocarbonyl-3-pyridinyl)-2.5-diazabicvclo[2.2.1]heptane bis(4-methylbenzenesulfonate)], for which the Ki is 0.83 nM. `O=[N+]([O-])c1ccc(N2CC3CC2CN3)cn1` [Example 28, (1S,4S)-2-(6-nitro-3-pyridinyl)-2.5-diazabicyclo[2.2.1]heptane]: the Ki is 109 nM.

These data come from patent EP1359152B1, “Diazabicyclic derivatives as nicotinic acetylcholine receptor ligands” (ABBOTT LABORATORIES, priority 1999, dated 2000).
